# Assay results reported in patent publication US20250129135A1, “Multi-Agonist and Use Thereof” (priority 2021, published 2025).
# Columns and labels:
# RIN-m5F cells = type: cell-based, rat
# Protocol: This experiment measured the cAMP level produced by the compound on RIN-mF cells.
# Frozen […] cells were placed in a 37° C. constant temperature water bath for rapid thawing and recovery. The cell solution was transferred to 10 ml of HBSS for resuspension, and centrifuged at 1000 rpm for 5 minutes at room temperature.
# 10 μL cell suspension was added to each well in the 384 well plate. […] Using the ECHO liquid transfer system, 100 nL of the prepared compound solution was added to the corresponding cell suspensions in the 384 well plate, rotated and shaken at 1000 rpm for 1 minute to mix evenly, and then incubated at room temperature for 60 minutes. 10 μL of detection reagent was added to each wells after drug incubation was completed, and incubation was performed for 60 minutes.
# Human GLP-1R = Human GLP-1R (Homo sapiens, UniProt P43220); assay: cAMP (HTRF) activity in HEK-293 cells stably overexpressing human GLP-1 receptor; type: cell-based; parameters: expressed in transfected cells; host or cells: HEK-293; settings: EC50 of human GLP-1 (7-37) / EC50 of compound
# Protocol: By measuring the cAMP signal response levels of the aforementioned cells, the agonistic activity of individual compound towards the corresponding receptor was determined. The intracellular cAMP content was measured using reagent kit available from Cisbio Corp. based on HTRF (homogeneous time-resolved fluorescence) technology.
# The cell fluid was transferred to 10 ml of HBSS for resuspension, and centrifuged at 1000 rpm for 5 minutes at room temperature.
# 10 μL cell suspension was added to each well in the 384 well plate. […] Using the ECHO liquid transfer system, 100 nL of the prepared compound solution was added to the corresponding cell suspensions in the 384 well plate, rotated and shaken at 1000 rpm for 1 minute to mix evenly, and then incubated at room temperature for 60 minutes. 10 μL of detection reagent was added to each well after drug incubation was completed, and incubation was performed in the kit at room temperature for 60 minutes. […] GraphPad Prism 5 plotting software was used to create compound concentration response curves and EC50 (nM) values was calculated.
# Human GLP-1R, sequence (P43220 24-463): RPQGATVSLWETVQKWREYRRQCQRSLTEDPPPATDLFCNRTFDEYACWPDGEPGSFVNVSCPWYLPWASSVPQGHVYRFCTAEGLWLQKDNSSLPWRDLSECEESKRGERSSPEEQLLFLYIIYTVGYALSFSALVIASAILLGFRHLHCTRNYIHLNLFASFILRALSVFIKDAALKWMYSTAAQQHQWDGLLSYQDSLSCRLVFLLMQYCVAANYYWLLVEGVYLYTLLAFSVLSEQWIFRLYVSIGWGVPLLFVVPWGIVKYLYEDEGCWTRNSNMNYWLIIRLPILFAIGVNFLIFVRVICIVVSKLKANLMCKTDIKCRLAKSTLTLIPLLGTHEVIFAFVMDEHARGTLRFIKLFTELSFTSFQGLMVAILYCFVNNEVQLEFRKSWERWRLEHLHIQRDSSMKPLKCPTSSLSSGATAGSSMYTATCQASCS
substance,measurement,setting,value
GLP-1(7-37) [reference compound],EC50,"RIN-m5F cells; cAMP, at least 3 independent tests, read-out: EC50 on RIN-m5F rat pancreatic islet tumor cells",1.03 nM
same,Rel. A (Relative Activity) on RIN-m5F,RIN-m5F cells; relative to GLP-1(7-37),100.00%
same,Human GLP-1R Rel. A (Relative Activity),Human GLP-1R,100.00%
